Values of other authors, collected in patent US7214387B2, “Sustained release formulations of metformin” (Penwest Pharmaceuticals Company, priority 2002, dated 2007).

Test system: serum lipids

CN(C)C(=N)NC(=N)N [metformin, N,N-dimethylimidodicarbonimidicdiamide]
effects on other lipid levels (clinical studies): no adverse effects | mean fasting serum triglycerides, total cholesterol, and LDL cholesterol levels (particularly when baseline lipid levels were abnormally elevated): lowered
